Data reported in ChEMBL document CHEMBL3352554, “Synthesis and structure-activity relationships of 4-fluorophenyl-imidazole p38α MAPK, CK1δ and JAK2 kinase inhibitors” (Bioorg Med Chem Lett, 2014).
Calls of active or inactive are those of the source. No cut-off for these calls is given here.

Tests used:
[1] = target: T1, Mitogen-activated protein kinase 14 (Homo sapiens, UniProt Q16539); experiment: Inhibition of p38alpha MAPK in TNF-alpha-induced HUVEC assessed as downregulation of VCAM-1 mRNA expression at 10 uM incubated for 4 hrs by RT-PCR analysis; format: cell-based
[2] = target: T1, Mitogen-activated protein kinase 14; experiment: Inhibition of p38alpha MAPK (unknown origin) by radiometric assay
[3] = target: Tyrosine-protein kinase JAK2 (Homo sapiens, UniProt O60674); experiment: Inhibition of JAK2 (unknown origin) by radiometric assay
[4] = target: Tyrosine-protein kinase JAK1 (Homo sapiens, UniProt P23458); experiment: Inhibition of JAK1 (unknown origin) by radiometric assay
[5] = target: T1, Mitogen-activated protein kinase 14; experiment: Inhibition of p38alpha MAPK in TNF-alpha-induced HUVEC assessed as downregulation of COX-2 mRNA expression at 10 uM incubated for 4 hrs by RT-PCR analysis; format: cell-based
[6] = target: Casein kinase I isoform delta (Homo sapiens, UniProt P48730); experiment: Inhibition of CK1-delta (unknown origin) by radiometric assay
[7] = target: T1, Mitogen-activated protein kinase 14; experiment: Inhibition of p38alpha MAPK in TNF-alpha-induced HUVEC assessed as downregulation of IL-6 mRNA expression at 10 uM incubated for 4 hrs by RT-PCR analysis; format: cell-based
[8] = target: T2, Tyrosine-protein kinase JAK3 (Homo sapiens, UniProt P52333); experiment: Inhibition of JAK3 (unknown origin) by radiometric assay
T2 sequence (P52333 whole entry): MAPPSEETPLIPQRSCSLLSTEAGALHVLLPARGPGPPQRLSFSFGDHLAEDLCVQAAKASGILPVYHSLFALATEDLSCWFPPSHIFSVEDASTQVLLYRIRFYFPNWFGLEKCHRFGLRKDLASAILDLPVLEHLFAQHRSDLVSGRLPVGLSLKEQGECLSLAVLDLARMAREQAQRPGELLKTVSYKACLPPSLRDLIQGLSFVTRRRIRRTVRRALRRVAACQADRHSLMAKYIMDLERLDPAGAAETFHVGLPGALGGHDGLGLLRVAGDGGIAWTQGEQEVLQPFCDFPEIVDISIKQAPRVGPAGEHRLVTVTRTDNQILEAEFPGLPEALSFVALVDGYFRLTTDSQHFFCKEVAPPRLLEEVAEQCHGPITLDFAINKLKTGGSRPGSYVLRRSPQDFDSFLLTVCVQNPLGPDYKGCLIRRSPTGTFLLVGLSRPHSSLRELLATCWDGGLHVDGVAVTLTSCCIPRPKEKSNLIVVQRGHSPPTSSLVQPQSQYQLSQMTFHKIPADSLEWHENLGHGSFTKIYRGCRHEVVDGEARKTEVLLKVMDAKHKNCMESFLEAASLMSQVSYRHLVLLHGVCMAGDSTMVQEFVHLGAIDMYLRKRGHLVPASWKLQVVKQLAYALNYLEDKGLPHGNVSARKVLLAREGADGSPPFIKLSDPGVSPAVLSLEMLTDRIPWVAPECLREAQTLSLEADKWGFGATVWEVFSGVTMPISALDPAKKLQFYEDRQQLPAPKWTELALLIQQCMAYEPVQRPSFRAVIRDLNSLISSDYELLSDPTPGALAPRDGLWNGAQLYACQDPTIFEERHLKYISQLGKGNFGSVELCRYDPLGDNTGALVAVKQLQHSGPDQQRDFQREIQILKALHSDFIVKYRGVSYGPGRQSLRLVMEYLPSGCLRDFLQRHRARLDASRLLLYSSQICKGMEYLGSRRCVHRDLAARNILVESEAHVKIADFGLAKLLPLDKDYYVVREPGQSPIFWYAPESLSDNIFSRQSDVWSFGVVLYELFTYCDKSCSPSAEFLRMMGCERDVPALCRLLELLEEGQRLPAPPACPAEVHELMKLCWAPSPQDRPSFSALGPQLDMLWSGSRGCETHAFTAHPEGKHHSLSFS

Homo sapiens [9] = species: Homo sapiens; experiment: Selectivity ratio of IC50 for p38alpha MAPK (unknown origin) to IC50 for CK1-delta (unknown origin)
Homo sapiens [10] = species: Homo sapiens; experiment: Selectivity ratio of IC50 for p38alpha MAPK (unknown origin) to IC50 for JAK2 (unknown origin)

Sequence of Casein kinase I isoform delta (P48730 whole entry, canonical isoform): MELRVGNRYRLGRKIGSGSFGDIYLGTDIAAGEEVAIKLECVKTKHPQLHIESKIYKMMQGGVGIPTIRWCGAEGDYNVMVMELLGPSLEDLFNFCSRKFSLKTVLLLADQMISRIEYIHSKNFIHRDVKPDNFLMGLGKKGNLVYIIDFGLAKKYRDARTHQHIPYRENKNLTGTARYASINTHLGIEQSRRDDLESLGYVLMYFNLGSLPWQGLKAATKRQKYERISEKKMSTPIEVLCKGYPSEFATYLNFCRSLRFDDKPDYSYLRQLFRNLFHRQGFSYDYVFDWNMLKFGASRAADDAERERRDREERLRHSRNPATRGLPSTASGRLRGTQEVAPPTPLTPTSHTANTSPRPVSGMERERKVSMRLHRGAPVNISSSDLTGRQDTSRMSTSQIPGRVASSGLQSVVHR
Sequence of Tyrosine-protein kinase JAK1 (P23458 whole entry): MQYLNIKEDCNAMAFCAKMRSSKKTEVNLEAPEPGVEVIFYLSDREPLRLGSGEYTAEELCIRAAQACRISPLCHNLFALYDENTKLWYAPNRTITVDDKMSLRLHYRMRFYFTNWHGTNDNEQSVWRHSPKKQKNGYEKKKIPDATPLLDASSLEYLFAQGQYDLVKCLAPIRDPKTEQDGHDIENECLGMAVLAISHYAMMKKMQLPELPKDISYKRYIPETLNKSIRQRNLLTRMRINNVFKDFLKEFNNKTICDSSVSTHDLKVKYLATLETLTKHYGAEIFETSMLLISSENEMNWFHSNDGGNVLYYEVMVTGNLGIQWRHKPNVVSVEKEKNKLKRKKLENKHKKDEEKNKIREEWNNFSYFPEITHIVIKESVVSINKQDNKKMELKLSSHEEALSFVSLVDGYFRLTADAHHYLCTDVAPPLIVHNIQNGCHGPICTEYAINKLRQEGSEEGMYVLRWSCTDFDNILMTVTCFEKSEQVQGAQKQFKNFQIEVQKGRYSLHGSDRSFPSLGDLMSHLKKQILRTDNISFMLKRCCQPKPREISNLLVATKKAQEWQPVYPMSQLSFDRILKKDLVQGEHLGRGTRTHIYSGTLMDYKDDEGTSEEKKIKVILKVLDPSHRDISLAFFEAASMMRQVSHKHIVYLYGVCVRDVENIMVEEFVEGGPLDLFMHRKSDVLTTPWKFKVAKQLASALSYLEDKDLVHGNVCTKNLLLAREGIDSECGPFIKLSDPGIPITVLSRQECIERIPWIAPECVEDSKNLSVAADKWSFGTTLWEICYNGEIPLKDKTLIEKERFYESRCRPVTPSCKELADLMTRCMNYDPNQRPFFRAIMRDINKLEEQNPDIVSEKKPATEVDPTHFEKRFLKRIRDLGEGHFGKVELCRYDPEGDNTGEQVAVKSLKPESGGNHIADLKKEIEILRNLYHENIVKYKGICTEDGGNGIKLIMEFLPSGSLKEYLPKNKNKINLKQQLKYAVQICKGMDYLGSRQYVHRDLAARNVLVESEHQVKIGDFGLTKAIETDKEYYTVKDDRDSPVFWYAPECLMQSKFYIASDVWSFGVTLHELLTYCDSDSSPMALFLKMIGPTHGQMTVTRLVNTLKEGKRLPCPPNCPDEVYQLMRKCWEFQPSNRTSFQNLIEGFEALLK
T1 sequence (Q16539 whole entry): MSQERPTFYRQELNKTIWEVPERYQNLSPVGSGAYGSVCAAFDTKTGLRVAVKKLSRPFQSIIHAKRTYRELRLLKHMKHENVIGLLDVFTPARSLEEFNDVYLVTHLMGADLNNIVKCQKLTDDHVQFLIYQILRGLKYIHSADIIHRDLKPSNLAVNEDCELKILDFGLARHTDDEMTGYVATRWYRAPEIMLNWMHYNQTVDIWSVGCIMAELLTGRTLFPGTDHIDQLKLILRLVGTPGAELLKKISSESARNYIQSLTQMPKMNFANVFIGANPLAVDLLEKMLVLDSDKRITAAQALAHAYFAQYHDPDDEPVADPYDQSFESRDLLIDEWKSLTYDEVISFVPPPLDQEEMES
Sequence of Tyrosine-protein kinase JAK2 (O60674 whole entry): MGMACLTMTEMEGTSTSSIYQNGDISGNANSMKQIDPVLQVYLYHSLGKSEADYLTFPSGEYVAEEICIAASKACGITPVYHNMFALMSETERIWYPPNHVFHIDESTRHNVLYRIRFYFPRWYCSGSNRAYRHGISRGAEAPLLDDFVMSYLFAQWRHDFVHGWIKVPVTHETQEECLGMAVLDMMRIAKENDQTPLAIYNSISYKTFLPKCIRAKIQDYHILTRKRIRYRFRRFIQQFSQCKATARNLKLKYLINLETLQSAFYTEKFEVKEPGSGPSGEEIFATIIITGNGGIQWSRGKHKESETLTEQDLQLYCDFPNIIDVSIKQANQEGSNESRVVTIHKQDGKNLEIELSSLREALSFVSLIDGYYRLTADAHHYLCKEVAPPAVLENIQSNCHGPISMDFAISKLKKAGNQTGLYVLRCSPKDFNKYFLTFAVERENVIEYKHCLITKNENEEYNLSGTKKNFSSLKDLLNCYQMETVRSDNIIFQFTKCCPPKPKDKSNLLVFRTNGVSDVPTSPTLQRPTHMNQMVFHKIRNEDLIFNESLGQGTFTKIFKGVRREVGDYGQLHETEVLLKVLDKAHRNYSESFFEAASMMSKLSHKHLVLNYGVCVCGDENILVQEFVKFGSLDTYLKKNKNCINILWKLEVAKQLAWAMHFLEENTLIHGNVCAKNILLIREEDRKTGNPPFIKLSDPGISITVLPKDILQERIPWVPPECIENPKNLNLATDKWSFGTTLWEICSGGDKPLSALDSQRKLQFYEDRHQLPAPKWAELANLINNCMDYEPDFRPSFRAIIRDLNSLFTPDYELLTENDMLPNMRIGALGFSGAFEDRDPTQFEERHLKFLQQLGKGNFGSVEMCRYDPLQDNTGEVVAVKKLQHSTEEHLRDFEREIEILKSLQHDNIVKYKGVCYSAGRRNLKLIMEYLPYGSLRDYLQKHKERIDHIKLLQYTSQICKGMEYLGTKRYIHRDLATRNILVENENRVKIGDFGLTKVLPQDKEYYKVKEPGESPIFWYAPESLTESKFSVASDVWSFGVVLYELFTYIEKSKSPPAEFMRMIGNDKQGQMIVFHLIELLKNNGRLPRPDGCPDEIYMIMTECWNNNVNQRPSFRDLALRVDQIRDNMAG

SMILES	inhibition [1]	IC50 [2] [µM]	IC50 [3] [µM]	IC50 [4] [µM]	inhibition [5]	IC50 [6] [µM]	inhibition [7]	IC50 [8] [µM]	Ratio IC50 (Homo sapiens [9])	Ratio IC50 (Homo sapiens [10])
O=C(O)c1cc(-c2nc(-c3ccc(F)cc3)c(-c3cc[nH]c(=O)c3)[nH]2)ccc1O	inactive	6.81	3.71	> 100	inactive	21.2	inactive	21.4	–	–
O=c1cc(-c2[nH]c(-c3ccc(-c4cn(CCP(=O)(O)O)nn4)cc3)nc2-c2ccc(F)cc2)cc[nH]1	–	> 100	–	> 100	–	10.8	–	> 100	–	–
CSc1nccc(-c2c(-c3ccc(F)cc3)nc3nc(-c4cn(CCP(=O)(O)O)nn4)ccn23)n1	–	> 100	> 100	> 100	–	> 100	–	> 100	–	–
CSc1nccc(-c2c(-c3ccc(F)cc3)nc3nc(-c4cn(CC(=O)O)nn4)ccn23)n1	–	0.25	> 100	> 100	–	> 100	–	> 100	–	–
O=c1cc(-c2[nH]c(-c3ccc(-c4cn(CCO)nn4)cc3)nc2-c2ccc(F)cc2)cc[nH]1	–	18.6	0.5	> 10	–	17.9	–	10.6	–	–
CCOP(=O)(CCn1cc(-c2ccc(-c3nc(-c4ccc(F)cc4)c(-c4cc[nH]c(=O)c4)[nH]3)cc2)nn1)OCC	–	> 100	4.2	23.9	–	44.3	–	37.4	–	–
C[C@H](Nc1nccc(-c2c(-c3ccc(F)cc3)nc3nc(N)ccn23)n1)c1ccccc1	–	0.0085	> 100	> 100	–	> 100	–	> 100	–	–
CSc1nccc(-c2c(-c3ccc(F)cc3)nc3nc(N)ccn23)n1	–	0.12	> 100	> 100	–	> 100	–	> 100	–	–
C#Cc1ccn2c(-c3ccnc(SC)n3)c(-c3ccc(F)cc3)nc2n1	–	2.51	> 100	> 100	–	> 100	–	> 100	–	–
O=c1cc(-c2[nH]c(-c3ccc(O)cc3)nc2-c2ccc(F)cc2)cc[nH]1	inactive	4.96	0.911	54.6	inactive	19.7	inactive	14.4	–	–
CSc1nccc(-c2[nH]c(-c3ccc(O)cc3)nc2-c2ccc(F)cc2)n1	–	0.0955	> 100	> 100	–	5.96	–	78.3	–	–
C#Cc1ccc(-c2nc(-c3ccc(F)cc3)c(-c3ccnc(SC)n3)[nH]2)cc1	–	82.1	> 100	> 100	–	66.3	–	> 100	–	–
O=c1cc(-c2[nH]c(-c3ccc(-c4nnn[nH]4)cc3)nc2-c2ccc(F)cc2)cc[nH]1	–	2.53	0.061	1.68	–	12.1	–	0.783	–	–
C#Cc1ccc(-c2nc(-c3ccc(F)cc3)c(-c3cc[nH]c(=O)c3)[nH]2)cc1	–	9.39	14.3	> 10	–	19.9	–	> 100	–	–
Oc1ccc(-c2nc(-c3ccncc3)c(-c3ccc(F)cc3)[nH]2)cc1 [SB-202190]	–	–	> 100	> 100	–	0.188	–	> 100	–	–
O=C(O)c1ccc(-c2nc(-c3ccc(F)cc3)c(-c3cc[nH]c(=O)c3)[nH]2)cc1	inactive	2.94	0.274	14.1	inactive	24.8	inactive	3.9	10	10
CCOP(=O)(CCn1cc(-c2ccn3c(-c4ccnc(SC)n4)c(-c4ccc(F)cc4)nc3n2)nn1)OCC	–	12	> 100	> 100	–	21.4	–	> 100	–	–
O=c1cc(-c2[nH]c(C3CCNCC3)nc2-c2ccc(F)cc2)cc[nH]1	inactive	1.14	6.62	16.9	inactive	12	inactive	11.8	–	–
CCOC(=O)Cn1cc(-c2ccc(-c3nc(-c4ccc(F)cc4)c(-c4cc[nH]c(=O)c4)[nH]3)cc2)nn1	–	32.9	0.352	80.1	–	24.5	–	3.03	–	–

Results, then the compound that gave them:

inhibition [1]	IC50 [2] [µM]	IC50 [3] [µM]	IC50 [4] [µM]	inhibition [5]	IC50 [6] [µM]	inhibition [7]	IC50 [8] [µM]	Ratio IC50 (Homo sapiens [9])	Ratio IC50 (Homo sapiens [10])	SMILES
–	1.02	> 100	> 100	–	0.439	–	> 100	–	–	Cn1c(-c2cn([C@@H]3[C@@H](O)[C@H](O)[C@@H](CO)O[C@H]3O)nn2)nc(-c2ccc(F)cc2)c1-c1ccncc1
–	–	> 100	> 100	–	0.437	–	> 100	–	–	Cn1c(-c2cn([C@H]3CCNC[C@@H]3F)nn2)nc(-c2ccc(F)cc2)c1-c1ccncc1
–	–	> 100	> 100	–	0.225	–	> 100	–	–	Cn1c(-c2cn(CCP(=O)(O)O)nn2)nc(-c2ccc(F)cc2)c1-c1ccncc1
–	–	> 100	> 100	–	0.089	–	> 100	–	–	Cn1c(-c2cn(-c3cccc(C(=O)O)c3)nn2)nc(-c2ccc(F)cc2)c1-c1ccncc1
–	0.21	> 100	> 100	–	0.202	–	> 100	–	–	Cn1c(-c2c[nH]nn2)nc(-c2ccc(F)cc2)c1-c1ccncc1
–	2.48	> 100	> 100	–	3.1	–	> 100	–	–	CCOP(=O)(CCn1cc(-c2nc(-c3ccc(F)cc3)c(-c3ccncc3)n2C)nn1)OCC
–	0.166	> 100	> 100	–	1.6	–	> 100	–	–	Cn1c(-c2cn(-c3ccc(C(=O)O)cc3)nn2)nc(-c2ccc(F)cc2)c1-c1ccncc1
–	0.783	> 100	> 100	–	0.24	–	> 100	–	–	Cn1c(-c2cn(CCO)nn2)nc(-c2ccc(F)cc2)c1-c1ccncc1
